Earlier results on three compounds are cited in patent US20240398684A1, “HIGH UV PROTECTION CLEANSING COMPOSITION” (Conopco, Inc., d/b/a UNILEVER, priority 2020, published 2024).

The conditions of this data set: Reference: Photochem. Photobiol. Sci., 2010,9, 464-469.

Turning to `O=S(=O)(O)c1ccc2[nH]c(-c3ccccc3)nc2c1` [PBSA, Phenyl benzimidazole sulphonic acid], the absorption maxima is given as 302 nm.
Consider `CC1(C)C2CCC1(CS(=O)(=O)O)C(=O)C2=Cc1ccc(C=C2C(=O)C3(CS(=O)(=O)O)CCC2C3(C)C)cc1` [TDSA, Terephthalylidene dicamphor sulfonic acid], for which the absorption maxima was 345 nm.
For the compound `O=S(=O)([O-])c1cc(S(=O)(=O)O)cc2[nH]c(-c3ccc(-c4nc5c(S(=O)(=O)[O-])cc(S(=O)(=O)O)cc5[nH]4)cc3)nc12.[Na+].[Na+]` [BD, Di sodium phenyl dibenzimidazole tetra sulfonate], the absorption maxima was 335 nm.
